According to patent US20060051868A1, “Methods for increasing conifer somatic embryo initiation, capture, and multiplication” (priority 2001, published 2006):

Tested on: Norway Spruce embryo and female gametophyte
Experiment: Initiation frequency of embryogenic cultures from Norway Spruce seed embryos
Type: cell-based
Details: base media #56; MES 0.25 gm/l (Media 1362); vitamins 0.05 ppm biotin + 0.5 ppm folic acid (Media 1363); nine weeks, light; control 38.5
Experimental: Mature Norway Spruce seeds were soaked in running water for 1 hour at room temperature and then stored in water for 24 hours in a refrigerator at 4° C. The seeds were sterilized by agitation in 10% liquinox containing 1.1 ml/l Tween 20 for 10 minutes followed by a 30 minute rinse with running tap water. In a sterile laminar flow hood, the rinsed seeds were agitated in 20% H2O2 for 10 min., then again rinsed with sterile deionized water for 5 cycles of 5 to 10 min. each. The sterile Norway Spruce seeds were placed into petri dishes onto sterile moistened filter paper for dissection. Seeds were opened and the female gametophyte removed. The female gametophyte was placed on its side and further opened. The embryo was removed from the gametophyte and placed onto a test medium next to the female gametophyte. Petri dishes containing the embryo and gametophyte were covered and wrapped with Parafilm® and incubated in light at 23-24° C. for nine weeks. The control-medium used for Norway Spruce was media #56. Refer to Table 21 for a detailed listing of media components. The three test media contained combinations of buffering reagent MES and/or vitamins. […] Initiation frequency was determined to be 38.5% for the control media, while the frequency on the control medium with the addition of 0.33 ppm paclobutrazol averaged roughly 48.5%. […]

SMILES: O=S(=O)(O)CCN1CCOCC1 [MES, 2-(N-morpholino)-ethanesulfonic acid]
- Initiation Frequency (%): 40.2%
